Experimental data: a melting point compilation (Tetko et al.; mined from patent text by program, amines drawn as free bases though some values may be those of a salt)

With `CC(=O)c1c(-c2ccccc2)nn(CC2CC2)c(=O)c1Nc1cccc2ncccc12` as the molecule, how does the melting point read?
The melting point was 204 to 205 °C.

Which melting point does the source give for `CCCn1ncnc1COc1nc2c(cc1C(C)(C)C)nnn2-c1ccccc1F` here?
The melting point was 127 to 129 °C.

For `CCC1(CC)Oc2ccc(C#N)cc2[C@@H](OC2=CC(=O)CC2)[C@@H]1O` (relative stereo), which melting point is on record?
The melting point was 166 to 170 °C.

Which melting point does the source give for `CN1CC(=O)Nc2ccc(Cl)c(F)c2C1=O` here?
Its melting point is over 250 °C.

Which melting point does the source give for `COc1ccc(C2=NN(CCCCBr)C(=O)[C@H]3CC=CC[C@@H]23)cc1OC` (relative stereo) here?
Its melting point is 102 to 103 °C.

Which melting point does the source give for `Nc1c(I)c(-c2ccccc2)nn1-c1c(Cl)cc(C(F)(F)F)cc1Cl` here?
The melting point was 162 to 164 °C.

For `Cc1ccc2cccc(OCc3cccc([N+](=O)[O-])c3C)c2n1`, which melting point is on record?
The melting point was 184 to 188 °C.

Which melting point does the source give for `COC(=O)c1nc(-c2ccc(Cl)c(OC)c2F)cc(NC(C)=O)c1OCc1ccccc1` here?
Its melting point is 115 to 120 °C.

Which melting point does the source give for `Cc1c(C(=O)O)ccc(Oc2cccnc2)c1S(C)(=O)=O` here?
The melting point was 214 to 216 °C.

For `Cc1c(Cc2ccccc2)c(=O)n(Cc2ccccc2)c2cc(OCC(N)=O)cc(OCC(N)=O)c12`, which melting point is on record?
The melting point was 252 to 253 °C.

For `CC(C)(C)c1cc(-c2nn(C3(C)COC(=O)O3)c3ncccc23)cc(C(C)(C)C)c1O` (centres undefined), which melting point is on record?
Its melting point is 190 to 191 °C.

With `c1ccc(Cc2nc(COc3ccc(CCCn4ccnc4)cc3)co2)cc1` as the molecule, how does the melting point read?
The melting point was 61 to 62 °C.

For `N#CCCc1cc(N2C(=O)C3=C(CCCC3)C2=O)ccc1Cl`, which melting point is on record?
Its melting point is 87 to 97 °C.

Which melting point does the source give for `CCCCCCCCCCCCCCCC(=O)NC(C(=O)OC)C(O)CCCCCCCCCCCCCCC` (centres undefined) here?
Its melting point is 80 °C.

For `COc1c(C)cc([N+](=O)[O-])cc1C(=S)N(C)C`, which melting point is on record?
Its melting point is 138 to 139 °C.

Which melting point does the source give for `CCN1c2ncc(CCc3cccc(N=[N+]=[N-])c3)cc2C(=O)N(C)c2ccc(Cl)nc21` here?
The melting point was 104 to 105 °C.

For `COC(=O)Cc1c(OC)ccc2c1Oc1c(ccc(OC)c1C=NO)C2(C)C`, which melting point is on record?
The melting point was 234 to 236 °C.

For `CCCCCCCCN1CC=C(c2c[nH]c(-c3ccc(F)cc3)c2-c2ccncc2)CC1`, which melting point is on record?
The melting point was 173 to 175 °C.

Which melting point does the source give for `O=C(OCCCI)C(=C1NCCCS1)[N+](=O)[O-]` here?
The melting point was 58 to 60 °C.

For `CCCC[C@H](NC(=O)[C@H](CC(C)C)NC(=O)c1c(F)cccc1F)C(=O)CSCc1ccco1`, which melting point is on record?
The melting point was 116 °C.

Which melting point does the source give for `NC[C@H]1C=Cc2cc(F)cc(-c3c(Cl)cccc3Cl)c2O1` here?
The melting point was 153 to 155 °C.

For `CSc1ccc(NC(=O)Nc2cc(-c3c(-c4ccc(F)c(C)c4)nc4cccnn34)ccn2)cc1`, which melting point is on record?
Its melting point is 219 to 220 °C.

For `COc1ccc(C(=Cc2nnnn2C)c2ccc(OC)cc2)cc1`, which melting point is on record?
Its melting point is 146 to 147 °C.

For `Cn1ncnc1-n1cc(C(=O)O)c(=O)c2cc(F)c(F)cc21`, which melting point is on record?
The melting point was 254 to 264 °C.

With `Cc1cc(C(=O)NC(=O)NC2CCCCC2)no1` as the molecule, how does the melting point read?
Its melting point is 180 °C.

Which melting point does the source give for `CC(O)c1ccc(OCCCCl)c(O)c1` (centres undefined) here?
Its melting point is 107 to 109 °C.

With `COc1ccc(Br)cc1-c1cc(-c2cccc(Br)c2)on1` as the molecule, how does the melting point read?
The melting point was 149 to 150 °C.

With `CC1=C(O)C(=O)c2ccccc2C1=O` as the molecule, how does the melting point read?
The melting point was 173 to 174 °C.

With `CCOP(=O)(Cc1ccc(C(=O)N(Cc2ccccc2)c2ccc(Cl)cc2)cc1)OCC` as the molecule, how does the melting point read?
Its melting point is 81 to 82 °C.

With `CCOC(=O)C1=C(C)NC(CN2C(=O)c3ccccc3C2=O)=C(C(=O)OCC)C1c1ccccc1Cl` (centres undefined) as the molecule, how does the melting point read?
Its melting point is 166 °C.

With `Cc1cc2c(cc1C(C)SCC(N)=O)OCO2` (centres undefined) as the molecule, how does the melting point read?
The melting point was 121 to 122 °C.

For `O=c1nc(-c2cccc(S(=O)(=O)Cc3ccccc3)n2)sc2ccccc12`, which melting point is on record?
The melting point was 217 to 218 °C.

For `CC(CCCc1ccccc1)c1cc(O)c2c3c(c(=O)oc2c1)CCC(=O)C3` (centres undefined), which melting point is on record?
The melting point was 163 to 164 °C.

Which melting point does the source give for `Cc1nc(Cc2ccccc2N)n[nH]1` here?
The melting point was 143 to 145 °C.

For `CC(C)(C)OC(=O)N(CC(=O)O)CC(=O)O`, which melting point is on record?
The melting point was 135 to 137 °C.

With `CC(C)c1oc(C=Cc2ccccc2)nc1C(=O)O` as the molecule, how does the melting point read?
Its melting point is 141 to 142 °C.

Which melting point does the source give for `COC(=O)[C@H](Cc1ccc([N+](=O)[O-])cc1)NC(C)=O` here?
The melting point was 126 °C.

With `O=C1c2cc3nnn(Cc4nc5ccccc5s4)c(=O)c3cc2OC2CCCN12` (centres undefined) as the molecule, how does the melting point read?
Its melting point is 224 to 227 °C.

For `Cc1cnc2c(NC(=O)c3c(Cl)cccc3Cl)ccc(C)c2c1N1CCN(C)C1=O`, which melting point is on record?
The melting point was over 300 °C.
